{
  "source": "patent US8148354B2",
  "about": "“Use of 20(S)-protopanaxadiol in manufacture of antidepressants” (priority 2006, dated 2012)",
  "key": {"[1]": {"test_system": "5-HTP-Induced Tremors in Mice", "experiment": "L-5-HTP induced tremor testing of mice", "type": "in vivo, Kunming mice", "conditions": "10 mice per group", "protocol": "Seventy male Kunming mice, 8-9 weeks old and weighing 18-22 g, were randomly divided by weight into 7 groups and administered a single dose by gavage as shown in Table 13. […] Then, mice were individually put into cages (16×27 cm) and observed for 20 minutes. The number of animals with tremors was recorded. Fisher's exact test was used for statistical analysis."}, "[2]": {"test_system": "chronic unpredictable stress rats", "experiment": "Chronic unpredictable stress testing of rats (open-field test)", "type": "in vivo", "conditions": "mean ± SD", "protocol": "Male stressed SD rats were housed individually and exposed for 21 days to the following unpredictable stressors: ice water swimming (4° C., 5 min), tail pinch (3 min), water deprivation (40 h), food deprivation (40 h), paired feeding, wet bedding, binding, and overnight lighting, each stress was applied two or three times. Animals in the non-stressed control group were housed 5 per cage. An open-field test was used to observe behavior. A large cubiform box (80×80×40 cm) was employed in which the floor was divided into 25 grids of equal size using white lines, with the same size grids also marked on the surrounding walls. The number of floor grids crossed (crossing) and the number of rearing up on hind limbs (rearing) were recorded. Observations of each rat were made every 3 minutes on the 22nd day. T test was used for statistical analysis."}, "NA Re-uptake": {"test_system": "NA Re-uptake", "experiment": "NA re-uptake test ([3H]-norepinephrine, corpus striatum homogenate)", "type": "biochemical, SD rats"}, "[3]": {"test_system": "Levodopa Behavior in Mice", "experiment": "Enhancement of the behavioral effects of levodopa on mice", "type": "in vivo, Kunming mice", "conditions": "10 mice per group", "protocol": "Seventy male Kunming mice, 8-9 weeks old and weighing 18-22 g, were randomly divided by weight […] into 7 groups and administered a single dose by gavage as shown in Table 14. Sixty minutes later, levodopa at a dose of 200 mg/kg (the maximal dose not inducing running in mice) was administered i. p. Then, mice were put into separate cages and observed for 30 minutes. The number of running mice was recorded. Fisher's exact test was used for statistical analysis."}, "[4]": {"test_system": "model rats wearing shackles", "experiment": "Stress testing of rats wearing shackles (open-field test)", "type": "in vivo", "conditions": "shackle model rats, mean ± SD", "excerpt": "(§1) (i) Modeling Method: Sixty male SD rats, 8-9 weeks old and weighing 200-250 g, were randomly divided into 6 groups and subjected to gavage once a day as shown in Table 9. On the first day, individually housed rats were fitted with a cylindrical plastic shackle-like device composed of two pieces of red organic glass 0.2 cm-thick and 4 cm in diameter. The device could be adjusted according to the size of the animals and was worn for 21 days.\n(ii) Test Indexes: Behavior such as rearing up; grabbing and gnawing; braying; slowness in reactions; action tardiness; narrowing of the eyes with secretion; yellow of fur; small, dry and fewer feces; borrow-reddish fail with scales and weight loss. An open-field test was used to observe the behavior of animals on day 21 (the same method used with the chronic stress rat model)."}, "[5]": {"test_system": "Reserpine-Induced Ptosis in Mice", "experiment": "Inhibition of reserpine-induced ptosis", "type": "in vivo, Kunming mice", "conditions": "reserpine 2 mg/kg i.p., 10 mice per group", "protocol": "Fifty male Kunming mice, 8-9 weeks old and weighing 18-22 g, were randomly divided by weight into 5 groups, and administered by gavage a single dose of one of the drugs listed in Table 3 for 10 consecutive days. Sixty minutes after the last dose, mice were given an i.p. injection of reserpine (2 mg/kg). After 60 minutes, mice were put on a bracketed stand and observed for 2 minutes. The number of animals with at least one upper eyelid closed was recorded. Fisher's exact test was used for statistical analysis."}, "[6]": {"test_system": "monoamine neurotransmitter and its metabolite in cerebral tissues", "experiment": "Measure of cerebral neurotransmitters in rats wearing shackles (HPLC-ECD)", "type": "in vivo, SD rats", "conditions": "shackle model rats, brain", "excerpt": "as §1\nPreparation of Cerebral Tissues: Rats were Sacrificed by Femoral Arterial Exsanguination, and whole brains were weighed after the cerebellum was excised and homogenized in 950 μl (0.1 mol/L) perchloric acid (containing 0.05% Na2EDTA) and 50 μl (2 μg/ml) of DHBA. This material was then centrifuged at 11,000 rpm/for 10 minutes and, 10 μl of the supernatant were taken for testing. Results were as follows: The amount of each neurotransmitter was shown as the wet weight (ng/g) in cerebral tissues.\nChromatographic conditions: Chromatography was performed with a Shimadzu HPLC system, which was equipped with an L-BCD-6A electrochemical detector (detection range: 0.1-500 nA), a chromatographic column of 5 μm, 200 mm×4.6 mm ID glassy carbon electrode; the flow rate employed was 1.2 ml/min, the operating voltage was +0.75 V; and oxygenation was maintained. An NP2000 workstation was used for data recording and processing (Intelligence Information Institute of Zhejiang University). The potential difference between the working electrode and reference electrode was 0.75 V. The mobile phase, prepared with deionized water and degassed, consisted of 0.1 mmol/L citric acid-0.1 mmol/L sodium acetate buffer at pH4.37 with 10% ethanol. A mixture of a B81.2 mmol/L ion pair and 1.3 mmol/L Di-n-butylamine was used after degasification of the G4 glass filler.\nPreparation of standard solutions: The stock solutions were 2 μg/ml for DHBA and 20 μg/ml for NE, DA, DOPAC, 5-HT, 5-HIAA and HAV. Standard solution 6 was prepared by mixing 20 μl each of NE, DA, DOPAC, 5-HT, 5-HIAA and HAV, then 80 μl of 0.1 mM mmol/LHCLO4 were added. Standard solution 7 (100 ng/ml) was prepared by mixing 50 μl of standard solution 6, 50 μl DHBA and 900 μl 0.1 mmol/LHCLO4. Standard solution 7 (10 μl) was used for HPLC."}, "[7]": {"conditions": "open-field day 21, 16 mg/kg × 21 i.g."}},
  "note": "Marks after values point to notes of the source that are not given here.",
  "data": [
    {"smiles": "CC(C)=CCC[C@](C)(O)[C@H]1CC[C@]2(C)[C@@H]1[C@H](O)C[C@@H]1[C@@]3(C)CC[C@H](O)C(C)(C)[C@@H]3CC[C@]12C", "note": "[20(S)-protopanaxadiol]", "values": [
      {"measurement": "Number of running animals", "setting": "[1]; 3.75 mg/kg × 1 i.g., with 5-HTP 200 mg/kg i.p.", "result": 2},
      {"measurement": "Number of crossing", "setting": "[2]; 3.33 mg/kg × 21 i.g.", "result": "32.90 ± 13.19", "unit": "times/3 min"},
      {"measurement": "Number of rearing", "setting": "[2]; 3.33 mg/kg × 21 i.g.", "result": "6.50 ± 2.64", "unit": "times/3 min"},
      {"measurement": "Amount of re-uptake", "setting": "NA Re-uptake; concentration 0.01 μg/ml", "result": "5347.8 ± 555.1", "unit": "dmp"},
      {"measurement": "Inhibitory rate", "setting": "NA Re-uptake; concentration 0.01 μg/ml", "result": 4.4, "unit": "%"},
      {"measurement": "Amount of re-uptake", "setting": "NA Re-uptake; concentration 0.1 μg/ml", "result": "5137.2 ± 465.7", "unit": "dmp"},
      {"measurement": "Inhibitory rate", "setting": "NA Re-uptake; concentration 0.1 μg/ml", "result": 8.2, "unit": "%"},
      {"measurement": "Amount of re-uptake", "setting": "NA Re-uptake; concentration 1 μg/ml", "result": "4950.6 ± 534.5", "unit": "dmp"},
      {"measurement": "Inhibitory rate", "setting": "NA Re-uptake; concentration 1 μg/ml", "result": 11.5, "unit": "%"},
      {"measurement": "Amount of re-uptake", "setting": "NA Re-uptake; concentration 10 μg/ml", "result": "4690.1 ± 332.1", "unit": "dmp"},
      {"measurement": "Inhibitory rate", "setting": "NA Re-uptake; concentration 10 μg/ml", "result": 16.2, "unit": "%"},
      {"measurement": "Number of running animals", "setting": "[3]; 3.75 mg/kg × 1 i.g., with levodopa 200 mg/kg i.p.", "result": 2},
      {"measurement": "Number of crossing", "setting": "[4]; open-field day 21, 3.33 mg/kg × 21 i.g.", "result": "7.00 ± 2.05", "unit": "times/3 min"},
      {"measurement": "Number of animals with at least one upper eyelid closed", "setting": "[5]; 3.75 mg/kg × 10 i.g.", "result": 9},
      {"measurement": "Number of animals with at least one upper eyelid closed", "setting": "[5]; 7.5 mg/kg × 10 i.g.", "result": 8},
      {"measurement": "Concentration of monoamine neurotransmitter and its metabolite: 5-HIAA", "setting": "[6]; 3.33 mg/kg × 21 i.g.", "result": 8.78, "unit": "ng/g nerve tissues"},
      {"measurement": "Concentration of monoamine neurotransmitter and its metabolite: DA", "setting": "[6]; 3.33 mg/kg × 21 i.g.", "result": 375.96, "unit": "ng/g nerve tissues"},
      {"measurement": "Concentration of monoamine neurotransmitter and its metabolite: DOPAC", "setting": "[6]; 3.33 mg/kg × 21 i.g.", "result": 21.57, "unit": "ng/g nerve tissues"},
      {"measurement": "Concentration of monoamine neurotransmitter and its metabolite: 5-HIAA", "setting": "[6]; 6.67 mg/kg × 21 i.g.", "result": 9.02, "unit": "ng/g nerve tissues"},
      {"measurement": "Concentration of monoamine neurotransmitter and its metabolite: 5-HT", "setting": "[6]; 6.67 mg/kg × 21 i.g.", "result": 113.18, "unit": "ng/g nerve tissues"},
      {"measurement": "Concentration of monoamine neurotransmitter and its metabolite: DA", "setting": "[6]; 6.67 mg/kg × 21 i.g.", "result": 401.67, "unit": "ng/g nerve tissues"},
      {"measurement": "Concentration of monoamine neurotransmitter and its metabolite: DOPAC", "setting": "[6]; 6.67 mg/kg × 21 i.g.", "result": 22.17, "unit": "ng/g nerve tissues"},
      {"measurement": "Concentration of monoamine neurotransmitter and its metabolite: HAV", "setting": "[6]; 6.67 mg/kg × 21 i.g.", "result": 56.37, "unit": "ng/g nerve tissues"},
      {"measurement": "Concentration of monoamine neurotransmitter and its metabolite: 5-HIAA", "setting": "[6]; 13.33 mg/kg × 21 i.g.", "result": 8.62, "unit": "ng/g nerve tissues"},
      {"measurement": "Concentration of monoamine neurotransmitter and its metabolite: 5-HT", "setting": "[6]; 13.33 mg/kg × 21 i.g.", "result": 102.81, "unit": "ng/g nerve tissues"},
      {"measurement": "Concentration of monoamine neurotransmitter and its metabolite: DA", "setting": "[6]; 13.33 mg/kg × 21 i.g.", "result": 394.41, "unit": "ng/g nerve tissues"},
      {"measurement": "Concentration of monoamine neurotransmitter and its metabolite: DOPAC", "setting": "[6]; 13.33 mg/kg × 21 i.g.", "result": 20.68, "unit": "ng/g nerve tissues"},
      {"measurement": "Concentration of monoamine neurotransmitter and its metabolite: HAV", "setting": "[6]; 13.33 mg/kg × 21 i.g.", "result": 53.19, "unit": "ng/g nerve tissues"},
      {"measurement": "Concentration of monoamine neurotransmitter and its metabolite: NE", "setting": "[6]; 13.33 mg/kg × 21 i.g.", "result": 11.04, "unit": "ng/g nerve tissues"}
    ]},
    {"smiles": "CNCCC(Oc1ccc(C(F)(F)F)cc1)c1ccccc1", "note": "(stereo not drawn) [Fluoxetine, reference compound]", "values": [
      {"measurement": "Number of running animals", "setting": "[1]; 18 mg/kg × 1 i.g., with 5-HTP 200 mg/kg i.p.", "result": "8***"},
      {"measurement": "Number of running animals", "setting": "[1]; 18 mg/kg × 1 i.g., without 5-HTP", "result": 0},
      {"measurement": "Number of crossing", "setting": "[2]; 16 mg/kg × 21 i.g.", "result": "44.40 ± 1.45", "unit": "times/3 min"},
      {"measurement": "Number of rearing", "setting": "[2]; 16 mg/kg × 21 i.g.", "result": "11.30 ± 3.43", "unit": "times/3 min"},
      {"measurement": "Amount of re-uptake", "setting": "NA Re-uptake; concentration 1 μg/ml", "result": "4311.8 ± 733.8", "unit": "dmp"},
      {"measurement": "Number of running animals", "setting": "[3]; 18 mg/kg × 1 i.g., with levodopa 200 mg/kg i.p.", "result": "7**"},
      {"measurement": "Number of running animals", "setting": "[3]; 18 mg/kg × 1 i.g., without levodopa", "result": 0},
      {"measurement": "Number of crossing", "setting": "[4]; [7]", "result": "11.20 ± 3.08", "unit": "times/3 min"},
      {"measurement": "Number of rearing", "setting": "[4]; [7]", "result": "49.80 ± 20.31", "unit": "times/3 min"},
      {"measurement": "Number of animals with at least one upper eyelid closed", "setting": "[5]; 18 mg/kg × 10 i.g.", "result": "4*"},
      {"measurement": "Concentration of monoamine neurotransmitter and its metabolite: 5-HIAA", "setting": "[6]; 16 mg/kg × 21 i.g.", "result": 8.42, "unit": "ng/g nerve tissues"},
      {"measurement": "Concentration of monoamine neurotransmitter and its metabolite: 5-HT", "setting": "[6]; 16 mg/kg × 21 i.g.", "result": "136.88 ± ng/g nerve tissues"},
      {"measurement": "Concentration of monoamine neurotransmitter and its metabolite: DA", "setting": "[6]; 16 mg/kg × 21 i.g.", "result": 406.97, "unit": "ng/g nerve tissues"},
      {"measurement": "Concentration of monoamine neurotransmitter and its metabolite: DOPAC", "setting": "[6]; 16 mg/kg × 21 i.g.", "result": 21.53, "unit": "ng/g nerve tissues"},
      {"measurement": "Concentration of monoamine neurotransmitter and its metabolite: HAV", "setting": "[6]; 16 mg/kg × 21 i.g.", "result": "62.17 ± ng/g nerve tissues"},
      {"measurement": "Concentration of monoamine neurotransmitter and its metabolite: NE", "setting": "[6]; 16 mg/kg × 21 i.g.", "result": "13.67 ± ng/g nerve tissues"}
    ]}
  ]
}
